Reference: the supplement of paper PMC6965134
± gives the standard deviation of the averaged measurements.

Assay: TIMS collisional cross section (CCS, N2) of the lipid ion; higher = larger ion cross section
Conditions: ionization mode: positive, one isomer drawn

| TIMS collisional cross section (sample type: Liver) [Å²] | TIMS collisional cross section (sample type: HeLa) [Å²] | TIMS collisional cross section (sample type: plasma) [Å²] | Structure (SMILES) |
| --- | --- | --- | --- |
| 289.3 | – | – | CCCCCCCC/C=C\CCCCCCCCCC(=O)O[C@H](COC(=O)CCCCCCCCCCCCCCCCC)COP(=O)(O)OCCN [PE 18:0_20:1] (ion (formula + adduct): [C43H84NO8P+H] 1+) |
| 283.9 ± 0.37 | 284.1 | – | CCCCC/C=C\C/C=C\C/C=C\C/C=C\CCCC(=O)O[C@H](COC(=O)CCCCCCCCCCCCCCCCC)COP(=O)(O)OCCN [PE 18:0_20:4@] (ion (formula + adduct): [C43H78NO8P+H] 1+) |
| 284.15 ± 0.49 | – | 283.5 | CCCCC/C=C\C/C=C\C/C=C\C/C=C\CCCC(=O)O[C@H](COC(=O)CCCCCCCCCCCCCCCCC)COP(=O)(O)OCCN [PE 18:0_20:4] (ion (formula + adduct): [C43H78NO8P+H] 1+) |
| 285.6 | 285.5 | – | CC/C=C\C/C=C\C/C=C\C/C=C\C/C=C\C/C=C\CCC(=O)O[C@H](COC(=O)CCCCCCCCCCCCCCCCC)COP(=O)(O)OCCN [PE 18:0_22:6] (ion (formula + adduct): [C45H78NO8P+H] 1+) |
| – | 286.2 | – | CCCCCCCC/C=C\CCCCCCCCCC(=O)O[C@H](COC(=O)CCCCCCC/C=C\CCCCCCCC)COP(=O)(O)OCCN [PE 18:1@_20:1] (ion (formula + adduct): [C43H82NO8P+H] 1+) |
| 283.3 | – | – | CCCCC/C=C\C/C=C\CCCCCCCCCC(=O)O[C@H](COC(=O)CCCCCCC/C=C\CCCCCCCC)COP(=O)(O)OCCN [PE 18:1@_20:2] (ion (formula + adduct): [C43H80NO8P+H] 1+) |
| – | 279 | – | CCCCCCCC/C=C\CCCCCCCC(=O)OC[C@H](COP(=O)(O)OCCN)OC(=O)CCCCCCCCCCCCCCCC [PE 18:1_17:0@] (ion (formula + adduct): [C40H78NO8P+H] 1+) |
| – | 279.2 ± 0.71 | – | CCCCCCCC/C=C/CCCCCCCC(=O)OC[C@H](COP(=O)(O)OCCN)OC(=O)CCCCCCC/C=C/CCCCCCCC [PE 18:1_18:1] (ion (formula + adduct): [C41H78NO8P+H] 1+) |
| – | 279.7 | 280.6 | CCCCCCCC/C=C/CCCCCCCC(=O)OC[C@H](COP(=O)(O)OCCN)OC(=O)CCCCCCC/C=C/CCCCCCCC [PE 18:1_18:1] (ion (formula + adduct): [C41H78NO8P+Na] 1+) |
| 290.8 | – | – | CCCCCCCC/C=C\CCCCCCCC(=O)OC[C@H](COP(=O)(O)OCCN(C)C)OC(=O)CCCCCCC/C=C\CCCCCCCC [PE 18:1_18:1] (ion (formula + adduct): [C43H82NO8P+Na] 1+) |
| – | 277.9 | 275.8 | CCCCC/C=C\C/C=C\CCCCCCCC(=O)O[C@H](COC(=O)CCCCCCC/C=C\CCCCCCCC)COP(=O)(O)OCCN [PE 18:1_18:2@] (ion (formula + adduct): [C41H76NO8P+H] 1+) |
| 276.1 | 275.7 | – | CCCCC/C=C\C/C=C\CCCCCCCC(=O)O[C@H](COC(=O)CCCCCCC/C=C\CCCCCCCC)COP(=O)(O)OCCN [PE 18:1_18:2] (ion (formula + adduct): [C41H76NO8P+H] 1+) |
| 277.2 | 276 | – | CCCCC/C=C\C/C=C\CCCCCCCC(=O)O[C@H](COC(=O)CCCCCCC/C=C\CCCCCCCC)COP(=O)(O)OCCN [PE 18:1_18:2] (ion (formula + adduct): [C41H76NO8P+Na] 1+) |
| 285.5 | – | – | CCCCCCCC/C=C\CCCCCCCCCC(=O)O[C@H](COC(=O)CCCCCCC/C=C\CCCCCCCC)COP(=O)(O)OCCN [PE 18:1_20:1@] (ion (formula + adduct): [C43H82NO8P+H] 1+) |
| – | 292.4 | – | CCCCCCCC/C=C\CCCCCCCC(=O)OC[C@H](COP(=O)(O)OCCN)OC(=O)CCCCCCCCC/C=C\CCCCCCCCCC [PE 18:1_22:1] (ion (formula + adduct): [C45H86NO8P+H] 1+) |
| 291.5 | – | – | CCCCC/C=C\C/C=C\CCCCCCCCCCCC(=O)O[C@H](COC(=O)CCCCCCC/C=C\CCCCCCCC)COP(=O)(O)OCCN [PE 18:1_22:2@] (ion (formula + adduct): [C45H84NO8P+H] 1+) |
| – | 270 | – | CCCCC/C=C\C/C=C\CCCCCCCC(=O)OC[C@H](COP(=O)(O)OCCN)OC(=O)CCCCCCC/C=C\CCCCCC [PE 18:2@_16:1] (ion (formula + adduct): [C39H72NO8P+H] 1+) |
| 277.2 | – | – | CC/C=C\C/C=C\C/C=C\C/C=C\C/C=C\CCCC(=O)O[C@H](COC(=O)CCCCCCC/C=C\C/C=C\CCCCC)COP(=O)(O)OCCN [PE 18:2@_20:5] (ion (formula + adduct): [C43H72NO8P+H] 1+) |

| TIMS collisional cross section (sample type: Liver) [Å²] | TIMS collisional cross section (sample type: HeLa) [Å²] | TIMS collisional cross section (sample type: plasma) [Å²] | Structure (SMILES) |
| --- | --- | --- | --- |
| 268.7 | – | – | CCCCC/C=C\C/C=C\CCCCCCCC(=O)OC[C@H](COP(=O)(O)OCCN)OC(=O)CCCCCCC/C=C\CCCCCC [PE 18:2_16:1] (ion (formula + adduct): [C39H72NO8P+H] 1+) |
| 273.1 | – | – | CCCCC/C=C\C/C=C\CCCCCCCC(=O)OC[C@H](COP(=O)(O)OCCN)OC(=O)CCCCCCC/C=C\C/C=C\CCCCC [PE 18:2_18:2] (ion (formula + adduct): [C41H74NO8P+H] 1+) |
| 270.2 | – | – | CCCCC/C=C\C/C=C\C/C=C\CCCCC(=O)O[C@H](COC(=O)CCCCCCC/C=C\C/C=C\CCCCC)COP(=O)(O)OCCN [PE 18:2_18:3] (ion (formula + adduct): [C41H72NO8P+H] 1+) |
| 284.2 | – | – | CCCCC/C=C\C/C=C\CCCCCCCC(=O)OC[C@H](COP(=O)(O)OCCN)OC(=O)CCCCCCCCC/C=C\CCCCCCCC [PE 18:2_20:1] (ion (formula + adduct): [C43H80NO8P+Na] 1+) |
| 273.7 | 273.8 | – | CCCCC/C=C\C/C=C\C/C=C\C/C=C\CCCC(=O)O[C@H](COC(=O)CCCC/C=C\C/C=C\C/C=C\CCCCC)COP(=O)(O)OCCN [PE 18:3_20:4@] (ion (formula + adduct): [C43H72NO8P+H] 1+) |
| 276.7 | – | – | CC/C=C\C/C=C\C/C=C\C/C=C\C/C=C\C/C=C\CCC(=O)O[C@H](COC(=O)CCCC/C=C\C/C=C\C/C=C\CCCCC)COP(=O)(O)OCCN [PE 18:3_22:6] (ion (formula + adduct): [C45H72NO8P+H] 1+) |
| – | 287.3 | – | CCCCC/C=C\C/C=C\C/C=C\C/C=C\CCCC(=O)O[C@H](COC(=O)CCCCCCCCCCCCCCCCCC)COP(=O)(O)OCCN [PE 19:0_20:4@] (ion (formula + adduct): [C44H80NO8P+H] 1+) |
| 286.3 | – | – | CCCCC/C=C\C/C=C\CCCCCCCC(=O)O[C@H](COC(=O)CCCCCCCCCCCCCCCCCCC)COP(=O)(O)OCCN [PE 20:0@_18:2] (ion (formula + adduct): [C43H82NO8P+H] 1+) |
| 287.2 | – | – | CCCCC/C=C\C/C=C\C/C=C\C/C=C\CCCC(=O)O[C@H](COC(=O)CCCCCCCCC/C=C\CCCCCCCC)COP(=O)(O)OCCN [PE 20:1_20:4] (ion (formula + adduct): [C45H80NO8P+H] 1+) |
| – | 279.1 | – | CCCCC/C=C\C/C=C\C/C=C\CCCCCCC(=O)OC[C@H](COP(=O)(O)OCCN)OC(=O)CCCCCCCCCCCCCCC [PE 20:3@_16:0] (ion (formula + adduct): [C41H76NO8P+H] 1+) |
| 280.9 | – | – | CCCCC/C=C\C/C=C\C/C=C\C/C=C\CCCC(=O)O[C@H](COC(=O)CCCCCC/C=C\C/C=C\C/C=C\CCCCC)COP(=O)(O)OCCN [PE 20:3_20:4@] (ion (formula + adduct): [C45H76NO8P+H] 1+) |
| – | 270.2 | – | CCCCC/C=C\C/C=C\C/C=C\C/C=C\CCCC(=O)OC[C@H](COP(=O)(O)OCCN)OC(=O)CCCCCCCCCCCCC [PE 20:4@_14:0] (ion (formula + adduct): [C39H70NO8P+H] 1+) |
| 284.4 | 284.8 | – | CC/C=C\C/C=C\C/C=C\C/C=C\C/C=C\C/C=C\CCC(=O)O[C@H](COC(=O)CCC/C=C\C/C=C\C/C=C\C/C=C\CCCCC)COP(=O)(O)OCCN [PE 20:4@_22:6] (ion (formula + adduct): [C47H74NO8P+H] 1+) |
| 272.6 | 272.4 | – | CCCCC/C=C\C/C=C\C/C=C\C/C=C\CCCC(=O)OC[C@H](COP(=O)(O)OCCN)OC(=O)CCCCCCC/C=C\CCCCCC [PE 20:4_16:1] (ion (formula + adduct): [C41H72NO8P+H] 1+) |
| 280 ± 0.42 | 279.1 | – | CCCCC/C=C\C/C=C\C/C=C\C/C=C\CCCC(=O)OC[C@H](COP(=O)(O)OCCN)OC(=O)CCCCCCC/C=C\CCCCCCCC [PE 20:4_18:1] (ion (formula + adduct): [C43H76NO8P+H] 1+) |
| 290.4 | – | – | CCCCC/C=C\C/C=C\C/C=C\C/C=C\CCCC(=O)OC[C@H](COP(=O)(O)OCCN)OC(=O)CCCCCCCCCCCCCCCCCCC [PE 20:4_20:0] (ion (formula + adduct): [C45H82NO8P+H] 1+) |
| 279.6 | 280.6 | – | CCCCC/C=C\C/C=C\C/C=C\C/C=C\CCCC(=O)OC[C@H](COP(=O)(O)OCCN)OC(=O)CCC/C=C\C/C=C\C/C=C\C/C=C\CCCCC [PE 20:4_20:4] (ion (formula + adduct): [C45H74NO8P+H] 1+) |
| – | 279.1 | – | CC/C=C\C/C=C\C/C=C\C/C=C\C/C=C\CCCC(=O)O[C@H](COC(=O)CCC/C=C\C/C=C\C/C=C\C/C=C\CCCCC)COP(=O)(O)OCCN [PE 20:4_20:5] (ion (formula + adduct): [C45H72NO8P+H] 1+) |
